Test results from ChEMBL document CHEMBL1147866, “Cyclic monophosphate prodrugs of base-modified 2'-C-methyl ribonucleosides as potent inhibitors of hepatitis C virus RNA replication” (Bioorg Med Chem Lett, 2007).

What was measured:
[1] = tested on: Bovine viral diarrhea virus 1; assay: Antiviral activity against Bovine viral diarrhea virus 1; type: functional, organism-based; conditions: Bovine viral diarrhea virus isolates and strains
[2] = tested on: Hepatitis C virus; assay: Antiviral activity against hepatitis C virus replication; type: functional, organism-based, Hepacivirus hominis
[3] = organism: Homo sapiens; assay: Metabolic stability in human plasma after 1 hr; type: ADME, organism-based
[4] = Metabolic stability in rat plasma after 1 hr; type: ADME, organism-based; conditions: read-out: Stability
[5] = tested on: Rhesus monkey; assay: Metabolic stability in monkey plasma after 1 hr; type: ADME, Macaca mulatta

CN(NS(C)(=O)=O)c1nc(N)nc2c1ncn2[C@@H]1O[C@@H]2OP(=O)(OCCSC(=O)C(C)(C)C)O[C@H]2[C@@]1(C)O (some centres undefined)
EC50 [1]: 33 nM | EC50 [2]: 22 nM

CC(C)OC(=O)OCOP1(=O)O[C@H]2O[C@@H](n3cnc4c(N(C)NS(C)(=O)=O)ncnc43)[C@](C)(O)[C@@H]2O1 (some centres undefined)
EC50 [1]: 420 nM | EC50 [2]: 463 nM

CN(NS(C)(=O)=O)c1ncnc2c1ncn2[C@@H]1O[C@@H]2OP(=O)(OCCSC(=O)C(C)(C)C)O[C@H]2[C@@]1(C)O (some centres undefined)
EC50 [1]: 245 nM | EC50 [2]: 145 nM

CC(C)OC(=O)OCOP1(=O)O[C@H]2O[C@@H](n3cnc4c(N(C)NS(C)(=O)=O)nc(N)nc43)[C@](C)(O)[C@@H]2O1 (some centres undefined)
EC50 [1]: 216 nM | EC50 [2]: 163 nM

CCCOC(C)(C)C(=O)SCCOP1(=O)O[C@H]2O[C@@H](n3cnc4c(N(C)NS(C)(=O)=O)nc(N)nc43)[C@](C)(O)[C@@H]2O1 (some centres undefined)
EC50 [1]: 16 nM | EC50 [2]: 8 nM | Stability [3]: Stable | remaining at 1 h [4]: 4% | Stability [5]: Stable

CN(NS(C)(=O)=O)c1nc(N)nc2c1ncn2[C@@H]1O[C@@H]2OP(=O)(OCOC(=O)C(C)(C)C)O[C@H]2[C@@]1(C)O (some centres undefined)
EC50 [1]: 223 nM | EC50 [2]: 92 nM

CN(NS(C)(=O)=O)c1ncnc2c1ncn2[C@@H]1O[C@@H]2OP(=O)(OCOC(=O)C(C)(C)C)O[C@H]2[C@@]1(C)O (some centres undefined)
EC50 [1]: 962 nM | EC50 [2]: 414 nM

CCCOCC(C)(C)C(=O)SCCOP1(=O)O[C@H]2O[C@@H](n3cnc4c(N(C)NS(C)(=O)=O)ncnc43)[C@](C)(O)[C@@H]2O1 (some centres undefined)
EC50 [1]: 110 nM | EC50 [2]: 39 nM
